# Patent US12295938B2, “Composition for treating castration-resistant prostate cancer, comprising quassinoids” (SAMSUNG LIFE PUBLIC WELFARE FOUNDATION, priority 2019, dated 2025)
# What was measured:
# [1] = tested on: AR-V7 transcriptional activity; test: MMTV-LUC luciferase reporter assay in 22RV1 cells, DHT− (screening and IC50); assay type: cell-based; details: 22RV1 cells, no DHT, control = 100; for activity at 10 µM / activity at 1 µM: Homo sapiens
# Experimental: (§1) A library of antimalarial agents was screened using a luciferase reporter assay to measure changes in AR/AR-V7 transcriptional activity.
# (§2) Screening was made primarily with 10 μM of each drug.
# [2] = tested on: AR transcriptional activity; test: MMTV-LUC luciferase reporter assay in 22RV1 cells, DHT+ (screening and IC50); assay type: cell-based; details: with DHT, control = 100; for activity at 10 µM: Homo sapiens
# Experimental: as §1, §2
molecule,measurement,setting,value
C[C@H]1[C@@H](O)O[C@@H]2O[C@@]3(C)CC[C@H]4[C@H](C)CC[C@@H]1[C@@]24OO3 [Dihydroartemisinin],activity at 10 µM,[1]; 10 uM,115 ± 10.1%
same,activity at 10 µM,[2]; 10 uM,138 ± 7%
COC(=O)[C@]12OC[C@]34[C@H]([C@@H](O)[C@@H]1O)[C@@]1(C)C=C(O[C@@H]5O[C@H](CO)[C@@H](O)[C@H](O)[C@H]5O)C(=O)[C@@H](C)[C@@H]1C[C@H]3OC(=O)[C@H](OC(=O)/C=C(\C)C(C)(C)O)[C@@H]24 [Yadanzioside C],MMTV-LUC activity (%) DHT−,[1]; 1 uM,118.9 ± 18.1%
same,MMTV-LUC activity (%) DHT−,[1]; 10 uM,110.4 ± 11.6%
same,MMTV-LUC activity (%) DHT+,[2]; 1 uM,55.6 ± 0.7%
same,MMTV-LUC activity (%) DHT+,[2]; 10 uM,5.8 ± 0.7%
C=CCc1ccc(O)c(-c2cc(CC=C)ccc2O)c1 [Magnolol],activity at 10 µM,[1]; 10 uM,130 ± 12%
same,activity at 10 µM,[2]; 10 uM,152 ± 8.6%
COC(=O)[C@]12OC[C@@]34[C@@H](CC5=C(C)C(=O)C(O)=C[C@]5(C)[C@H]3[C@@H](O)[C@@H]1O)OC(=O)[C@H](OC(=O)CC(C)C)[C@@H]24 [Dehydrobruceine A],MMTV-LUC activity (%) DHT−,[1]; 10 uM,133.8 ± 14.5%
same,MMTV-LUC activity (%) DHT+,[2]; 10 uM,164.2 ± 16.0%
CCCCN(CCCC)CC(O)c1cc(Cl)cc2c1-c1ccc(Cl)cc1/C2=C/c1ccc(Cl)cc1 (stereo not shown) [Lumefantrine],activity at 10 µM,[1]; 10 uM,138 ± 9.5%
CCc1nc(N)nc(N)c1-c1ccc(Cl)cc1 [Pyrimethamine],activity at 10 µM,[1]; 10 uM,130.5 ± 0.2%
O=C(O)c1cc(O)c2c(c1)[C@H]([C@H]1c3cc(C(=O)O)cc(O)c3C(=O)c3c(O[C@@H]4O[C@H](CO)[C@@H](O)[C@H](O)[C@H]4O)cccc31)c1cccc(O[C@@H]3O[C@H](CO)[C@@H](O)[C@H](O)[C@H]3O)c1C2=O [Sennoside A],MMTV-LUC activity (%) DHT−,[1]; 10 uM,105.5 ± 4.4%
C[C@H]1COC2=C1C(=O)C(=O)c1c2ccc2c1CCCC2(C)C [Cryptotanshinone],activity at 10 µM,[1]; 10 uM,70.3 ± 3.2%
same,activity at 10 µM,[2]; 10 uM,62.7 ± 15.3%
O=C(O)c1cc(O)c2c(c1)C(=O)c1cccc(O)c1C2=O [Rhein],activity at 10 µM,[1]; 10 uM,83 ± 9.2%
Yadanziolide C,MMTV-LUC activity (%) DHT−,[1]; 0.1 uM,80.5 ± 2.9%
same,MMTV-LUC activity (%) DHT−,[1]; 1 uM,17.4 ± 3.1%
same,MMTV-LUC activity (%) DHT−,[1]; 10 uM,6.0 ± 0.7%
same,MMTV-LUC activity (%) DHT+,[2]; 0.1 uM,92.5 ± 0.9%
same,MMTV-LUC activity (%) DHT+,[2]; 1 uM,12.1 ± 2.0%
same,MMTV-LUC activity (%) DHT+,[2]; 10 uM,1.1 ± 0.1%
CC1=CC(=O)[C@@H](O)[C@@]2(C)[C@H]1[C@@H](O)[C@H]1OC(=O)[C@H](O)[C@]3(O)[C@]14CO[C@]3(CO)[C@@H](O)[C@H](O)[C@H]24 [Yadanziolide B],MMTV-LUC activity (%) DHT−,[1]; 0.1 uM,23.1 ± 5.2%
same,MMTV-LUC activity (%) DHT−,[1]; 1 uM,7.2 ± 0.8%
same,MMTV-LUC activity (%) DHT−,[1]; 10 uM,8.2 ± 1.0%
same,MMTV-LUC activity (%) DHT+,[2]; 0.1 uM,32.8 ± 9.0%
same,MMTV-LUC activity (%) DHT+,[2]; 1 uM,4.2 ± 0.4%
same,MMTV-LUC activity (%) DHT+,[2]; 10 uM,4.0 ± 0.5%
COc1ncnc(NS(=O)(=O)c2ccc(N)cc2)c1OC [Sulfadoxine],activity at 10 µM,[1]; 10 uM,116 ± 4.4%
O=C(Nc1ccc([N+](=O)[O-])cc1Cl)c1cc(Cl)ccc1O [Niclosamide],activity at 1 µM,[1]; 1 uM,119 ± 10.8%
same,activity at 10 µM,[1]; 10 uM,9.4 ± 0.6%
CCN(CCO)CCCC(C)Nc1ccnc2cc(Cl)ccc12 (stereo not shown) [Hydroxychloroquinesulfate],activity at 10 µM,[1]; 10 uM,92.3 ± 2%
C[C@H]1[C@H](OC(=O)CCC(=O)O)O[C@@H]2O[C@@]3(C)CC[C@H]4[C@H](C)CC[C@@H]1[C@@]24OO3 [Artesunate],activity at 10 µM,[1]; 10 uM,107.6 ± 0.8%
CNC(=O)c1ccc(N2C(=S)N(c3ccc(C#N)c(C(F)(F)F)c3)C(=O)C2(C)C)cc1F [Enzalutamide],activity at 1 µM,[1]; 1 uM,87.4 ± 11.3%
same,activity at 10 µM,[1]; 10 uM,79.4 ± 34.6%
"O=C1c2cccc(O)c2C(=O)c2c(O)cccc21 [1,8-Dihydroxyanthraquinone]",activity at 10 µM,[1]; 10 uM,83.8 ± 2.9%
O=C1c2c(O)cccc2C([C@@H]2O[C@H](CO)[C@@H](O)[C@H](O)[C@H]2O)c2cc(CO)cc(O)c21 (stereo partly shown) [Aloin A],MMTV-LUC activity (%) DHT−,[1]; 10 uM,108.3 ± 5.0%
